The test system of one assay is HeLa. Kind of assay: Antiproliferative activity against human HeLa cells assessed as cell growth inhibition after 72 hrs by Cell titer glo assay. Format: functional, cell-based. A general note: In ATP-based viability assays light output follows the ATP content of the culture.
For assay [1], the target named is cGMP-inhibited 3',5'-cyclic phosphodiesterase 3A (Homo sapiens, UniProt Q14432). Kind of assay: Inhibition of human full length PDE3A expressed in Sf9 cells measured after 60 mins by [3H]-cAMP Scintillation proximity assay. (In a scintillation proximity assay essentially only radioactivity close to the scintillant gives light.)
The subject of another assay is SK-MEL3. Kind of assay: Antiproliferative activity against human SK-MEL3 cells assessed as cell growth inhibition after 72 hrs by Cell titer glo assay. The format is functional, cell-based. The settings on record: SK-MEL3, 72 h.
For the next assay, the system named is IGR-37 cell line. Kind of assay: Antiproliferative activity against human IGR37 cells assessed as cell growth inhibition after 72 hrs by Cell titer glo assay. The format is functional, cell-based. To be noted: IGR-37, 72 h.
The target in assay [2] is cGMP-inhibited 3',5'-cyclic phosphodiesterase 3B (Homo sapiens, UniProt Q13370). Kind of assay: Inhibition of human full length PDE3B expressed in Sf9 cells measured after 60 mins by [3H]-cAMP Scintillation proximity assay.

IC50 data for six molecules are collected here from ChEMBL document CHEMBL4825718, “Novel Dihydrooxadiazinones as PDE3 Inhibitors for Treating Cancer” (ACS Med Chem Lett, 2021).

Chain of cGMP-inhibited 3',5'-cyclic phosphodiesterase 3B (Q13370 whole entry): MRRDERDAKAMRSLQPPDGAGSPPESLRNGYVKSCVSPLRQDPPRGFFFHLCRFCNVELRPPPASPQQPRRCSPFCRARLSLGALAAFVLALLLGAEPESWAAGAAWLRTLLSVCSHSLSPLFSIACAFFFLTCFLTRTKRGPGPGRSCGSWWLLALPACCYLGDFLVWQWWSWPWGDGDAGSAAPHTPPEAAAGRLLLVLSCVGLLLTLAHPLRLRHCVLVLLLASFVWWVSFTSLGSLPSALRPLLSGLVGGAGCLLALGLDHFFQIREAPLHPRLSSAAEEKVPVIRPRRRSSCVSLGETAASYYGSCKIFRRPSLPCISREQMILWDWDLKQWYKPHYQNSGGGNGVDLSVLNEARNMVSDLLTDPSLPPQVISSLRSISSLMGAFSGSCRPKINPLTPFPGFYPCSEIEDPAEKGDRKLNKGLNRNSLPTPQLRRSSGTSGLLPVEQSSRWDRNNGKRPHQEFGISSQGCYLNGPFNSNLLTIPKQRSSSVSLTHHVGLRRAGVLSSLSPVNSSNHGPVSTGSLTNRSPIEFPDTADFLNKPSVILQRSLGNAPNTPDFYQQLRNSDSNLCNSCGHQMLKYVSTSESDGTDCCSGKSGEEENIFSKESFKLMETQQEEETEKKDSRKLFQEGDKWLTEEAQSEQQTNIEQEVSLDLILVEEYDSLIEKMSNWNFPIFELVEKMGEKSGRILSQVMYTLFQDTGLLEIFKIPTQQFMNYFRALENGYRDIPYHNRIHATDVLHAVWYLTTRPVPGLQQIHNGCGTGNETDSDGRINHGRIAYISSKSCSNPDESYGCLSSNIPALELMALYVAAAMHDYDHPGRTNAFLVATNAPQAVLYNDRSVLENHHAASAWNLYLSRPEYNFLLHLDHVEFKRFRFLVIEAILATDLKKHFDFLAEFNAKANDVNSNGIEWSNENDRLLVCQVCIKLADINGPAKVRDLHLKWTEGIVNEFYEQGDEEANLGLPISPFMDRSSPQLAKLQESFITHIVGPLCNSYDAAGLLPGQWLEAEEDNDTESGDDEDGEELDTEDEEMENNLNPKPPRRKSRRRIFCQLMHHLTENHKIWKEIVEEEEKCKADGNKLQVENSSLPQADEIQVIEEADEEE
Chain of cGMP-inhibited 3',5'-cyclic phosphodiesterase 3A (Q14432 whole entry): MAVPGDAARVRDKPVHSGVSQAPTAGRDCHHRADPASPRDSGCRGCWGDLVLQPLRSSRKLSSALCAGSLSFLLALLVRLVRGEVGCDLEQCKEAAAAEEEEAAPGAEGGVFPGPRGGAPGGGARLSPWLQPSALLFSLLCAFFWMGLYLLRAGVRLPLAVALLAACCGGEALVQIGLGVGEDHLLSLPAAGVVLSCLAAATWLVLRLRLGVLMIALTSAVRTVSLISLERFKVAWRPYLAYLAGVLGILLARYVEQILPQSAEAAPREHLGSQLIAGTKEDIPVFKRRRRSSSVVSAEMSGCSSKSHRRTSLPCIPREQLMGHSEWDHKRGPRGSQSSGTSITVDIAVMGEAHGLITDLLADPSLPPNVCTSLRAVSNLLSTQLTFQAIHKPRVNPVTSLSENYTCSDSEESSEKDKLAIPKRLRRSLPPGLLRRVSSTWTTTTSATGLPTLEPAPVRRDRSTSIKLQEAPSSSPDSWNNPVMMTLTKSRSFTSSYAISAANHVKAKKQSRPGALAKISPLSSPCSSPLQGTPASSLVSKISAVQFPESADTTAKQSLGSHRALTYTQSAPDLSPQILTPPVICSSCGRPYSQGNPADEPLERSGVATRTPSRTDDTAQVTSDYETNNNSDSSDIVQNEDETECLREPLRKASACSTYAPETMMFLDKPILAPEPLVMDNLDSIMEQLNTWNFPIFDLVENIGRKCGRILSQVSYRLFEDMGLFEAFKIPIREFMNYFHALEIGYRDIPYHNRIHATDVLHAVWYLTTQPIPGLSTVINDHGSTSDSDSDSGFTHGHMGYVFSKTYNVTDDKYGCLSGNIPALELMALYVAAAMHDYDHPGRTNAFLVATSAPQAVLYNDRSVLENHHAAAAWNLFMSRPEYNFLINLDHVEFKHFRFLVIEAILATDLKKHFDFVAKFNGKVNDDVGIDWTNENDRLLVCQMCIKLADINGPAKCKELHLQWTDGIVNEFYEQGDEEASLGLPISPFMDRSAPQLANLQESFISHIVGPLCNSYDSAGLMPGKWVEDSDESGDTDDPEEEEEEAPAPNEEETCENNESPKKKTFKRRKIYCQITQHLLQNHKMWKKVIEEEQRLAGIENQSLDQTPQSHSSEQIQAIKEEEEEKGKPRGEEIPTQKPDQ

As to `C[C@@H]1OC(=O)NN=C1c1ccc(OC[C@@H](C)F)c(C(F)(F)F)c1`, the half-maximal inhibitory concentration (IC50) (commonly the concentration that inhibits the measured activity by half) in the assay with HeLa came out at 0.2 nM; in assay [1] it was 9 nM; in the assay on SK-MEL3 it was 0.5 nM; with IGR-37 cell line, 0.3 nM; in assay [2], 9 nM.
As for `CCCCOc1ccc(C2=NNC(=O)O[C@H]2C)cc1C(F)(F)F`, the figures for the concentration for half-maximal inhibition (IC50) in the assay with HeLa, in the assay with SK-MEL3 and in the assay with IGR-37 cell line were 0.2 nM, 0.6 nM and 0.5 nM, respectively.
Take `CCOc1ccc(C2=NNC(=O)O[C@H]2C)cc1C(F)(F)F`: the IC50 was determined as 0.3 nM in the assay with HeLa; 6 nM in assay [1]; 0.6 nM in the assay with SK-MEL3; 0.5 nM with IGR-37 cell line; 7 nM in assay [2].
Regarding `C[C@@H]1OC(=O)NN=C1c1ccc(OCCC(F)(F)F)c(C(F)(F)F)c1`, the IC50 stood at 0.1 nM with HeLa; 7 nM in assay [1]; 0.3 nM with SK-MEL3; 0.3 nM in the assay on IGR-37 cell line; 5 nM in assay [2].
For `CCCOc1ccc(C2=NNC(=O)O[C@H]2C)cc1C(F)(F)F`, the IC50 worked out at 0.1 nM with HeLa; 8 nM in assay [1]; 0.3 nM in the assay with SK-MEL3; 0.3 nM with IGR-37 cell line; 5 nM in assay [2].
For `COCCOc1ccc(C2=NNC(=O)O[C@H]2C)cc1C(F)(F)F`, the half-maximal inhibitory concentration (IC50) in the assay on HeLa turned out to be 0.1 nM; in the assay with SK-MEL3, 0.3 nM; in the assay with IGR-37 cell line, 0.2 nM.
